Source: patent EP4603105A1, “PHARMACEUTICAL COMPOSITION CONTAINING CYCLIC COMPOUND HAVING SELECTIVE KRAS INHIBITORY EFFECT AGAINST HRAS AND NRAS” (CHUGAI SEIYAKU KABUSHIKI KAISHA, priority 2022, dated 2024)
Read-outs that look alike come from different tables or passages of the source. Where a SMILES comes first, the peptide text is derived from it. Bridges are numbered along the chain shown (N, C = ends). [ ]: non-standard residue; d: D form. The star is where a group is joined. hPhe(3-Cl-4-CF3) = N[C@@H](CCc1ccc(C(F)(F)F)c(Cl)c1)C(=O)O; NPrPhe(4-CF3) = CCCN[C@@H](Cc1ccc(C(F)(F)F)cc1)C(=O)O; NMeGly(cPent) = CN[C@H](C(=O)O)C1CCCC1; Piperidide(4-Me) = CC1CCN(*)CC1; NMeD = CN[C@@H](CC(=O)O)C(=O)O; NMeL = CN[C@@H](CC(C)C)C(=O)O; NMeA = CN[C@@H](C)C(=O)O; Pyrrolidide = C1CCN(*)C1; Ac5c = NC1(C(=O)O)CCCC1; Aze = O=C(O)[C@@H]1CCN1; Sar = CNCC(=O)O

What was measured:
[1] = biological target: GDP-bound NRAS wild-type protein (Homo sapiens, UniProt P01111); test: Binding to NRAS by surface plasmon resonance (SPR), KD and KD ratio to KRAS
GDP-bound NRAS wild-type protein, sequence (P01111 whole entry): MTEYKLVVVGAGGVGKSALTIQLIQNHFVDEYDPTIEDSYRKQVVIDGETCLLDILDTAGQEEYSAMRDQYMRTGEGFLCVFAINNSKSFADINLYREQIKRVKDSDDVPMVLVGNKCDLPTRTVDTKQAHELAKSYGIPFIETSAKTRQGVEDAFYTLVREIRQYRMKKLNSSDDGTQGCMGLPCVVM
Method in brief: (§1)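 Measured at 30°C: SPR with GDP-loaded, E. coli-expressed biotin-Avi RAS captured (~100–300 RU), ascending 75 s compound injections, HBS pH 7.4 with GDP, MgCl2, 4% DMSO. KD from 1:1 fit.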

[2] = biological target: HRAS wild-type protein (Homo sapiens, UniProt P01112); test: Binding to HRAS by surface plasmon resonance (SPR), KD and KD ratio to KRAS
HRAS wild-type protein, sequence (P01112 whole entry): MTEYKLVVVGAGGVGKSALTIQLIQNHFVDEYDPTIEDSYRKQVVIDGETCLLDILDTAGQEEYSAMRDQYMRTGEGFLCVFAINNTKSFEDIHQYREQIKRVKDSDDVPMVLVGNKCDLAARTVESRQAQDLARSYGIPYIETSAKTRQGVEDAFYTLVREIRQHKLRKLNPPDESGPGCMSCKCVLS
Method in brief: as §1

[3] = system: human lung cancer strain NCI-H441; format: cell-based
Method in brief: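 Signal came from […] measured per well once the reagent was added. Beforehand, cells were cultured at 37°C and 5% carbon dioxide on a compound series serially diluted in dimethyl sulfoxide.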

[4] = ratio of the KD value with respect to GDP-bound NRAS wild-type protein to the KD value with respect to KRAS
[5] = ratio of the KD value with respect to HRAS wild-type protein to the KD value with respect to KRAS
[6] = ratio of KD for GDP-bound NRAS wild-type protein to KD for KRAS
[7] = ratio of KD for HRAS wild-type protein to KD for KRAS

Compound | NRAS /KRAS [1, 4] | HRAS /KRAS [2, 5] | IC50 [3] | NRAS /KRAS [1, 6] | HRAS /KRAS [2, 7] | NRAS /KRAS ([1]; ratio of KD value for GDP-bound NRAS wild-type protein to KD value for KRAS (SPR)) | HRAS /KRAS ([2]; ratio of KD value for HRAS wild-type protein to KD value for KRAS (SPR)) | IC50 ([3]; NCI-H441 cells, 4 days, CellTiter-Glo, read-out: NCl-H441 IC50)
CCO[C@@H]1C[C@H]2C(=O)NC3(CC(C)(C)C3)C(=O)N(C)[C@@H](C(CC)CC)C(=O)N(C)[C@H](C(=O)N(C)C)CC(=O)N(C)[C@@H](CC(C)C)C(=O)N[C@@H]([C@@H](C)CC)C(=O)N(C)CC(=O)N(C)[C@H]3C/C=C\CCN(C3=O)[C@@H](Cc3ccc(C(F)(F)F)cc3)C(=O)N(C)CC(=O)N[C@@H](CCc3ccc(Cl)c(Cl)c3)C(=O)N2C1 [PP2176] | AA (a compound having 20 or more is denoted as AA) | A (a compound having 10 or more and less than 20 is denoted as A) | 52.9 nM | – | – | – | – | –
CCCN1C(=O)CN(C)C(=O)CN(C)C(=O)[C@H]([C@@H](C)CC)NC(=O)[C@H](CC(C)C)N(C)C(=O)C[C@@H](C(=O)N2CCC(C)CC2)N(C)C(=O)[C@H](C2CCCC2)N(C)C(=O)C2(CCCC2)NC(=O)[C@@H]2CCCN2C(=O)[C@H](CCc2ccc(C(F)(F)F)c(Cl)c2)NC(=O)CN(C)C(=O)[C@@H]1Cc1ccc(C(F)(F)F)cc1 [PP0176] ([NMeL]I[Sar][Sar][NPrPhe(4-CF3)][Sar][hPhe(3-Cl-4-CF3)]P[Ac5c][NMeGly(cPent)][NMeD]-{Piperidide(4-Me)}; lactam N-11) | – | – | 17.7 nM | B (a compound having 3 or more and less than 10 is denoted as B) | C (A compound having a KD ratio of 0.1 or more and less than 3 is denoted as C) | – | – | –
CCO[C@@H]1C[C@H]2C(=O)NC3(CCC3)C(=O)N(C)[C@@H](C3CCCC3)C(=O)N(C)[C@H](CC)CC(=O)N(C)[C@@H](CC)C(=O)N[C@@H]([C@@H](C)CC)C(=O)N(C)CC(=O)N(C)[C@H]3C/C=C\CCN(C3=O)[C@@H](Cc3ccc(C(F)(F)F)cc3)C(=O)N(C)CC(=O)N[C@@H](CCc3cc(F)c(C(F)(F)F)c(F)c3)C(=O)N2C1 [PP1625] | – | – | 20.2 nM | – | – | B (a compound having 3 or more and less than 10 is denoted as B) | B (a compound having 3 or more and less than 10 is denoted as B) | –
CC[C@H](C)[C@@H]1NC(=O)[C@H](C)N(C)C(=O)C[C@@H](C(=O)N(C)C)N(C)C(=O)[C@H](C2CCCC2)N(C)C(=O)C2(CCC2)NC(=O)[C@@H]2CC(F)(F)CN2C(=O)[C@H](CCc2cc(F)c(C(F)(F)F)c(F)c2)NC(=O)CN(C)C(=O)[C@H](Cc2ccc(C(F)(F)F)cc2)N2CCCCC[C@@H](C2=O)N(C)C(=O)CN(C)C1=O [PP0473] | C (A compound having a KD ratio of 0.1 or more and less than 3 is denoted as C) | C (A compound having a KD ratio of 0.1 or more and less than 3 is denoted as C) | 14.8 nM | – | – | – | – | –
CCCN1C(=O)[C@@H]2CCN2C(=O)[C@H](C)N(C)C(=O)[C@H]([C@@H](C)CC)NC(=O)[C@H](CC(C)C)N(C)C(=O)C[C@@H](C(=O)N2CCCC2)N(C)C(=O)[C@H](C2CCCC2)N(C)C(=O)C2(CCCC2)NC(=O)[C@@H]2CCCN2C(=O)[C@H](CCc2ccc(C(F)(F)F)c(Cl)c2)NC(=O)CN(C)C(=O)[C@@H]1Cc1ccc(C(F)(F)F)cc1 [PP0179] ([NMeL]I[NMeA][Aze][NPrPhe(4-CF3)][Sar][hPhe(3-Cl-4-CF3)]P[Ac5c][NMeGly(cPent)][NMeD]-Pyrrolidide; lactam N-11) | – | – | 4.5 nM | C (A compound having a KD ratio of 0.1 or more and less than 3 is denoted as C) | B (a compound having 3 or more and less than 10 is denoted as B) | – | – | –
CCC[C@H]1C(=O)N[C@@H]([C@@H](C)CC)C(=O)N(C)CC(=O)N(C)[C@H]2C/C=C\CCN(C2=O)[C@@H](Cc2ccc(C(F)(F)F)cc2)C(=O)N(C)CC(=O)N[C@@H](CCc2ccc(CC)c(F)c2)C(=O)N2C[C@H](OCC)C[C@H]2C(=O)NC2(CC(C)(C)C2)C(=O)N(C)[C@@H](C2CCCC2)C(=O)N(C)[C@H](C(=O)N(C)C)CC(=O)N1C [PP2856] | – | – | – | A (a compound having 10 or more and less than 20 is denoted as A) | A (a compound having 10 or more and less than 20 is denoted as A) | – | – | 33.5 nM
CCCN(C)C(=O)[C@@H]1CC(=O)N(C)[C@@H](CC(F)F)C(=O)N[C@@H]([C@@H](C)CC)C(=O)N(C)CC(=O)N(C)[C@H]2C/C=C\CCN(C2=O)[C@@H](Cc2ccc(C(F)(F)F)cc2)C(=O)N(C)CC(=O)N[C@@H](CCc2cc(F)c(C(F)(F)F)c(F)c2)C(=O)N2C[C@@H](C)C[C@H]2C(=O)NC2(CC(C)(C)C2)C(=O)N(C)[C@@H](C2CCCC2)C(=O)N1C [PP2040] | A (a compound having 10 or more and less than 20 is denoted as A) | A (a compound having 10 or more and less than 20 is denoted as A) | 10.5 nM | – | – | – | – | –
